Legend:
Assay type in all cases: in vivo, human
[1] = test system: borderline diabetic patients; experiment: Blood glucose and blood insulin levels after administration in the absence of glucose load (fasted), crossover double-blind; details: single 10 mg dose; for blood glucose level (G) / blood insulin level (I): fasted, no glucose load; for blood insulin level (I): unit assumed
Method: Three borderline diabetic patients (person, person and person) were instructed to fast from 8:00 pm (to ensure absence of glucose load), and were administered a placebo once or the test agent (corosolic acid) once at 9:00 am on the following day, after which the changes in blood glucose level and blood insulin level were measured. The participants were given absolutely no information regarding placebo or test agent (crossover, double-blind). The corosolic acid was administered in a single 10 mg dose, and each test was conducted twice.
FIG. 3 is a graph showing changes in blood glucose levels with administration of corosolic acid and a placebo in the absence of a glucose load, and FIG. 4 is a graph showing changes in blood insulin levels with administration of corosolic acid and a placebo in the absence of a glucose load.

[2] = test system: borderline diabetic patients; experiment: Glucose tolerance test (75 g glucose), blood insulin level (IRI), double-blind crossover; details: 10 mg oral, 31 borderline diabetic patients, p<0.05
Method: A glucose tolerance test was performed after administration of corosolic acid or a placebo, in a double-blind crossover manner, and the blood insulin level (IRI: immunoreactive insulin) was assayed.
(§1) First, 31 borderline diabetic patients as test subjects were orally administered corosolic acid (10 mg, >99% purity) or a placebo, and blood was sampled immediately thereafter with the blood insulin level at that time designated as the value at 0 minutes. Immediately after blood sampling, 75 g of glucose was orally administered to each test subject to start a glucose tolerance test, and blood was sampled after periods of 30 minutes, 60 minutes, 90 minutes, 120 minutes and 180 minutes for measurement of the blood insulin level.
FIG. 1 is a graph showing the blood insulin levels during the glucose tolerance test. The horizontal axis represents time (min) after start of the glucose tolerance test, and the vertical axis represents IRI (μU/mL). In the graph, (a) is a case with administration of corosolic acid and (b) is a case with administration of the placebo.

[3] = test system: borderline diabetic patients; experiment: Glucose tolerance test (75 g glucose), blood glucose level (plasma glucose concentration), double-blind crossover; details: 10 mg oral, 35 borderline diabetic patients, p<0.05
Method: The following test was conducted to confirm that corosolic acid has a hypoglycemic effect. A glucose tolerance test was performed after administration of corosolic acid, banaba extract or a placebo, in a double-blind crossover manner, and the blood glucose level (plasma glucose concentration) was assayed.
as §1, with “35” for “31”, “purity), banaba extract (trade name: COROSOLIA M, product of Use Techno Corporation; administered at 10 mg of corosolic acid)” for “purity)”, “glucose” for “insulin”
FIG. 2 is a graph showing blood glucose levels during the glucose tolerance test. The horizontal axis represents time (min) after start of the glucose tolerance test, and the vertical axis represents plasma glucose concentration (mg/dL). In the graph, (c) is a case with administration of corosolic acid, (d) is a case with administration of banaba leaf extract and (e) is a case with administration of the placebo.

[4] = 120 minutes after start of glucose tolerance test

Compound: C[C@H]1[C@H](C)CC[C@]2(C(=O)O)CC[C@]3(C)C(=CC[C@@H]4[C@@]5(C)C[C@@H](O)[C@H](O)C(C)(C)[C@@H]5CC[C@]43C)[C@H]12 [corosolic acid]
- blood glucose levels, corosolic acid versus placebo ([1]; absence of glucose load, FIG. 3): no significant difference
- blood insulin levels, corosolic acid versus placebo ([1]; absence of glucose load, FIG. 4): no significant difference
- blood glucose level (G) ([1]; participant A, after 0 min): 110 mg/dL
- blood insulin level (I) ([1]; participant A, after 0 min): 9 µU/mL
- blood glucose level (G) ([1]; participant A, after 30 min): 104 mg/dL
- blood insulin level (I) ([1]; participant A, after 30 min): 6.9 µU/mL
- blood glucose level (G) ([1]; participant A, after 60 min): 107 mg/dL
- blood insulin level (I) ([1]; participant A, after 60 min): 6.6 µU/mL
- blood glucose level (G) ([1]; participant A, after 90 min): 104 mg/dL
- blood insulin level (I) ([1]; participant A, after 90 min): 5.9 µU/mL
- blood glucose level (G) ([1]; participant A, after 120 min): 104 mg/dL
- blood insulin level (I) ([1]; participant A, after 120 min): 6.6 µU/mL
- blood glucose level (G) ([1]; participant A, after 180 min): 102 mg/dL
- blood insulin level (I) ([1]; participant A, after 180 min): 5.1 µU/mL
- blood glucose level (G) ([1]; participant B, after 0 min): 144 mg/dL
- blood insulin level (I) ([1]; participant B, after 0 min): 2.5 µU/mL
- blood glucose level (G) ([1]; participant B, after 30 min): 143 mg/dL
- blood insulin level (I) ([1]; participant B, after 30 min): 2.6 µU/mL
- blood glucose level (G) ([1]; participant B, after 60 min): 147 mg/dL
- blood insulin level (I) ([1]; participant B, after 60 min): 3 µU/mL
- blood glucose level (G) ([1]; participant B, after 90 min): 149 mg/dL
- blood insulin level (I) ([1]; participant B, after 90 min): 2 µU/mL
- blood glucose level (G) ([1]; participant B, after 120 min): 150 mg/dL
- blood insulin level (I) ([1]; participant B, after 120 min): 3.4 µU/mL
- blood glucose level (G) ([1]; participant B, after 180 min): 146 mg/dL
- blood insulin level (I) ([1]; participant B, after 180 min): 2.4 µU/mL
- blood glucose level (G) ([1]; participant C, after 0 min): 90 mg/dL
- blood insulin level (I) ([1]; participant C, after 0 min): 4.5 µU/mL
- blood glucose level (G) ([1]; participant C, after 30 min): 90 mg/dL
- blood insulin level (I) ([1]; participant C, after 30 min): 4.1 µU/mL
- blood glucose level (G) ([1]; participant C, after 60 min): 88 mg/dL
- blood insulin level (I) ([1]; participant C, after 60 min): 3.9 µU/mL
- blood glucose level (G) ([1]; participant C, after 90 min): 86 mg/dL
- blood insulin level (I) ([1]; participant C, after 90 min): 4.9 µU/mL
- blood glucose level (G) ([1]; participant C, after 120 min): 86 mg/dL
- blood insulin level (I) ([1]; participant C, after 120 min): 4 µU/mL
- blood glucose level (G) ([1]; participant C, after 180 min): 81 mg/dL
- blood insulin level (I) ([1]; participant C, after 180 min): 4 µU/mL
- blood insulin level compared to placebo ([2]; 30 minutes after start of glucose tolerance test): significant increase
- blood insulin level compared to placebo [2, 4]: significant drop
- blood glucose level compared to placebo ([3]; 90 minutes after start of glucose tolerance test): significant decrease
- blood glucose level compared to placebo [3, 4]: significant decrease

Reference: patent US20050137259A1, “Insulin secretion potentiator” (Use- Techno Corporation, priority 2003, published 2005)
